Here are results for 3 compounds from patent US4880826A, “Melatonin antagonist” (priority 1986, dated 1989).

One experiment has as its system prepubertal male rats. The experiment can be described thus: Long-term administration to prepubertal male rats: accessory sex organ development and testosterone. The experiment is classed as in vivo, rat. From the text: (1) Long-term administration of melatonin (via the drinking water or via intraperitoneal injection) to prepubertal male rats results in retardation of testicular accessory sex organ development.
(4) Long-term administration of ML-23 alone to prepubertal male rats, enhanced testosterone levels in the blood of the animals.

The subject of experiment [1] is Female rats kept under constant illumination. The experiment can be described thus: Ovarian cyclicity of female rats kept under constant illumination. The experiment is classed as in vivo, rat.
Another experiment has as its system adult female rats. Kind of experiment: Melatonin block of luteinizing hormone secretion and ovulation in adult female rats at proestrus. Type of experiment: in vivo, rat. From the text:
(2) Melatonin administration to adult female rats in the afternoon of proestrus blocks the phasic secretion of luteinizing hormone and ovulation.

Another experiment relates to rat hypothalamus. The settings on record: cited from earlier work.
In the next experiment the test system is Melatonin receptor. Kind of experiment: Melatonin receptor assay using 2-125I-iodo-ML-23. Type of experiment: binding, rat. As to conditions: female rats: hypothalamus, medulla-pons, hippocampus, cerebellum, striatum, parietal cortex. As to the method: Tissue sections or isolated cells were suspended in 10 ml/g ice-cold 0.32M sucrose, homogenized in a teflon-glass homogenizer. The homogenate was centrifuged (10000 g-min) the pellet was discarded and the supernatant centrifuged (68000 g-min). The crude membrane pellet was suspended in 2 vol of 50 mM Tris-HCL buffer, pH 7.4 containing 4 mM CaCl2. 2-^125 I-iodo-ML-23 was prepared by iodination of ML-23 with Na^125 I (Amersham) (20 CI/mmol) in the presence of Iodo-Gen. The principal iodination product, 2-^125 I-iodo-ML 23 (^125 I-MLI-23) was separated from unsubstituted ML-23 as described in Example 2. Aliquots of the membrane preparations (200 μg protein/20 μl) were incubated with 40 μl Trisbuffer containing 20-100 nM ^125 I-MLI-23 for 30 min. at 37° C. on a shaking water bath, in the absence or presence of unlabelled melatonin (50 μM). Membranes were then collected by vacuum filtration using GF/C glass fiber filters and washed with 3×4 ml buffer at 4° C. The filters containing bound ^125 I-ML-23 were assayed for radioactivity using a Packard gamma counter. Specific binding was defined as that displaced by 50 μM of non-radioactive melatonin and ranged from 50 to 60% of the total binding at 50 nM ^125 I-MLI-23. […]

The mark [2] stands for this setting: oral administration in the presence of melatonin.

With `COc1ccc2[nH]cc(CCNc3ccc([N+](=O)[O-])cc3[N+](=O)[O-])c2c1` [ML-23, N-2,4-dinitrophenyl-5-methoxy-tryptamine], the “testosterone levels in the blood” value in the experiment with prepubertal male rats (long-term administration alone) is reported as “enhanced”. In addition, in the experiment on prepubertal male rats (setting [2]), the “effect on melatonin's suppressive effects on prostate and seminal vesicle growth” value is “entirely abolished”; the “effect on melatonin's suppressive effects on serum testosterone levels” value is on record as “entirely abolished”. For the same compound, in experiment [1] (rats treated orally with the antagonist, constant illumination), the “ovarian cyclicity re-established by daily melatonin injections” value is listed as “not in rats treated orally with ML-23”. In addition, the “effect on melatonin block of luteinizing hormone secretion and ovulation” value in the experiment on adult female rats (via the drinking water, female rats given melatonin) was “prevented the effect of melatonin and normal ovulation occurred”.

Turning to `COc1ccc2[nH]cc(CCNC(C)=O)c2c1` [melatonin, 5-methoxy-N-acetyl-tryptamine], the “testicular accessory sex organ development” value in the experiment on prepubertal male rats (long-term administration via the drinking water or intraperitoneal injection) is “retardation”. Moreover, the ovarian cyclicity result in experiment [1] (daily melatonin injections, female rats under constant illumination) is given as “reestablish ovarian cyclicity”. Besides, in the experiment with adult female rats (administration in the afternoon of proestrus, adult female rats), the “phasic secretion of luteinizing hormone and ovulation” value is given as “blocks”. The “stimulated release of dopamine” value with rat hypothalamus is on record as “inhibits”.

As to `COc1ccc2[nH]c([125I])c(CCNc3ccc([N+](=O)[O-])cc3[N+](=O)[O-])c2c1` [^125 I-MLI-23], the “specific binding in brain regions” value with Melatonin receptor is reported as “found”.
